Measured values published in patent US8377922B2, “Benzazepinone compound” (Ube Industries, Ltd., priority 2007, dated 2013).
Structures can show the parent of a compound that is named as a salt.

Legend:
[1] = tested on: αvβ6 expressed cells (HT-29 cells); assay: Cell adhesion test of αvβ6 expressed cell; type: cell-based; conditions: binding to human fibronectin, read-out: αvβ6 expressed cells adhesion inhibiting IC50 value
Experimental: The experiment was carried out by partially modifying the method of Goodman et al. (J. Med. Chem., 45, 1045 (2002)).
Human fibronectin (available from CHEMICON) was adjusted to […] with PBS. This was applied on the 96-well plate (MS9586F, available from SUMIRON) with 100 μL/well, coating was carried out at room temperature for 1 hour, and the coating solution was removed and dried. Thereafter, a blocking treatment was carried out with 1.0% BSA dissolved in DMEM for 1 hour, and washed with PBS, and this was used as a coating plate in the adhesion test. HT-29 cells (available from Dainippon Sumitomo Pharma Co., Ltd.) cultured in McCoy's 5A medium containing 10% FBS were detached by using trypsin-ethylenediamine tetraacetic acid, washed with PBS and recovered. Then, the cells were suspended in DMEM to prepare a HT-29 cells suspension. DMEM solution containing the HT-29 cells and a compound to be tested were each added to human fibronectin coating plates each in an amount of 50 μL/well to start the adhesion test.
The adhesion test was carried out in a 5% carbonic acid gas incubator (37° C.) for 2 hours. After completion of the adhesion test, the supernatant was removed by aspiration, and the plates were washed with PBS. Then, Crystal violet staining was carried out, and the number of cells was measured. A concentration (IC50 value) of the compound to be tested necessary for inhibiting 50% of binding to human fibronectin was calculated by using EXSAS (available from Arm Systex Co., Ltd.).

[2] = tested on: αvβ3 expressed cells (HUVEC); assay: Cell adhesion test of αvβ3 expressed cell; type: cell-based; conditions: binding to human vitronectin, 50% human serum-containing DMEM, read-out: αvβ3 expressed cells adhesion inhibiting IC50 value
Experimental: The experiment was carried out by partially modifying the method of Juliano et al. (Exp. Cell Res., 225(1), 132 (1996)).
Human vitronectin (available from CHEMICON) was adjusted to 10 μg/mL with phosphate buffered physiological saline (hereinafter abbreviated as PBS). This was applied onto the 96-well plate (MS9586F, available from SUMIRON) with 100 μL/well, coating was carried out at room temperature for 1 hour, and the coating solution was removed and the plate was dried. Thereafter, blocking treatment was carried out with 1.0% BSA dissolved in Dulbecco's Modified Eagle Medium (hereinafter abbreviated as DMEM) for 1 hour, washed with PBS, and the resulting material was used for the adhesion test as a coating plate. HUVEC (human umbilical endothelial cells) (available from Clonetics Corp.) cultured in endothelian cell basal medium EBM2 (available from Clonetics Corp.) containing EGM-2 SingleQuot Kit suppi. & growth factors EGM2 (available from Clonetics Corp.) and 10% fetal bovine serum (hereinafter abbreviated as FBS) were detached by using trypsin-ethylenediamine tetraacetic acid, washed by using PBS and recovered, and then, suspended in 50% human serum-containing DMEM to prepare cell suspension of HUVEC. […]
The adhesion test was carried out in a 5% carbonic acid gas incubator (37° C.) for 1 hour. […] Crystal violet staining was carried out, and the number of stained cells was measured. […]

## CNc1cccc(CCOc2ccc3c(c2)CN(CC(F)(F)F)C(=O)C(CC(=O)O)C3)n1 (racemic) [Compound A, 8-[2-[6-(methylamino)-pyridin-2-yl]-1-ethoxy]-3-oxo-2-(2,2,2-trifluoroethyl)-2,3,4,5-tetrahydro-1H-2-benz-azepin-4-acetic acid, reference compound]
[1]
  IC50: > 100000 nM

## O=C(O)CC1Cc2ccc(OCCc3cn4c(n3)NCCC4)cc2CN(CC(F)(F)F)C1=O (stereo not shown) [Example 2, 3-oxo-8-[2-(5,6,7,8-tetrahydroimidazo[1,2-a]pyrimidin-2-yl)ethoxy]-2-(2,2,2-tri-fluoroethyl)-2,3,4,5-tetrahydro-1H-2-benzazepin-4-acetic acid trifluoroacetate]
[2]
  IC50: 61 nM
[1]
  IC50: 441 nM

## O=C(O)C[C@@H]1Cc2ccc(OCCc3cn4c(n3)NCCC4)cc2CN(CC(F)(F)F)C1=O [Example 4, (4S)-3-oxo-8-[2-(5,6,7,8-tetrahydroimidazo[1,2-a]pyrimidin-2-yl)ethoxy]-2-(2,2,2-trifluoroethyl)-2,3,4,5-tetrahydro-1H-2-benzazepin-4-acetic acid]
[1]
  IC50: 296 nM
